The values that follow come from US8586768B2, “Design, synthesis and functional characterization of rottlerin analogs” (priority 2009, dated 2013).

Like-named read-outs stand apart in the source and are kept apart here.

In experiment [1] the target is T1, ASK1 (Homo sapiens, UniProt Q99683).
T1 construct: purchased Signal Chem (Richmond, BC, Canada)
T1 sequence (Q99683 1-1374): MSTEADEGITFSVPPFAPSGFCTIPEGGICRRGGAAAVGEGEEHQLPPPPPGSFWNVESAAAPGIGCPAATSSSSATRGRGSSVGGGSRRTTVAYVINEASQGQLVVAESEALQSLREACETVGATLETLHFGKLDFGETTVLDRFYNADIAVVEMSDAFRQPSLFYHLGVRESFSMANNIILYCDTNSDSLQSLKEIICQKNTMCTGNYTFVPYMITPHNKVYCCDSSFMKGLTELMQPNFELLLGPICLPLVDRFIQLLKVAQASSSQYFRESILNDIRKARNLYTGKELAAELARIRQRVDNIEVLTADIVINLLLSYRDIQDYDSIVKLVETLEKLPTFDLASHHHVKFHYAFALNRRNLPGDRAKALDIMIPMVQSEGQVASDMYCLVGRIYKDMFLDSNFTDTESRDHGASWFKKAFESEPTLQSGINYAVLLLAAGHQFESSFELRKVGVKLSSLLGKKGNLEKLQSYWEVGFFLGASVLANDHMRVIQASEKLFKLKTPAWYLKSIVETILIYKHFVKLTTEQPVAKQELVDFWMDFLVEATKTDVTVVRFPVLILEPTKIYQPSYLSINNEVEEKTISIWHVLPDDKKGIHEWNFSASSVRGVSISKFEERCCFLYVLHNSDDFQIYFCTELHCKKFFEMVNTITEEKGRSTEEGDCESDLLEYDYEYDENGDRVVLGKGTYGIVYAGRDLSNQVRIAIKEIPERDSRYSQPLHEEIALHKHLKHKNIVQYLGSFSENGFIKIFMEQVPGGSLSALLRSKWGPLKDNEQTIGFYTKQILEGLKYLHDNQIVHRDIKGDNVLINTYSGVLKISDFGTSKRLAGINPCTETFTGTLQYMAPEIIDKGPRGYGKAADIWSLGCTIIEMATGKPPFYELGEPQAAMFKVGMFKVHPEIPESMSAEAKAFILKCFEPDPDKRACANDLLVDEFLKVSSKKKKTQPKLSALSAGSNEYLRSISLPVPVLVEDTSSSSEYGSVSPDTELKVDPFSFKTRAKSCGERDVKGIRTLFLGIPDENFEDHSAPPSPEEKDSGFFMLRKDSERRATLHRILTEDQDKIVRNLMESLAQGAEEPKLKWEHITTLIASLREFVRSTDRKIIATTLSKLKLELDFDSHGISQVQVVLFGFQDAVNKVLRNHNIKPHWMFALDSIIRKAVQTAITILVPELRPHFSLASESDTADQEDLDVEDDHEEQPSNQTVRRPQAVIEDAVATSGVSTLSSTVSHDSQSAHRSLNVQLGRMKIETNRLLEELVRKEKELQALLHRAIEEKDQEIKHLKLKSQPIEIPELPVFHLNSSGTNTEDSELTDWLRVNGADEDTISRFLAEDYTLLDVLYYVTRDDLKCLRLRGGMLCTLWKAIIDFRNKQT
The experiment is described as follows: In-vitro kinase profiling, radioisotope screening assay (Signal Chem). The class given is biochemical. Particulars: 5 μM compound, 50 μM ATP, vs vehicle control; negative = inhibition. As to the method:
Kinase profiling of PK analogs. The inhibitory effect of lead PK analogs were tested against a panel of 15 protein kinase targets (TABLE 1) to develop better lead candidates without “off” target effects. The selectivity assay was performed at Signal Chem™ (Richmond, BC, Canada) by profiling against protein kinase targets using the “Gold Standard” radioisotope screening assay format. This assay format gave the highest signal noise ratio and allowed the direct measurement of catalytic activity of a protein kinase.
All assays were performed in triplicate in a 96-well assay format and the % error between triplicates is <10%. Protein kinase assays was performed in the presence of 50 μM ATP at 30° C. for 15 min. The activity of the enzymes in the presence of 5 μM PK analogs was compared to that in the vehicle control and expressed as a percent change in activity relative to that observed in the vehicle control. In TABLE 1, the results are expressed as percent activity change compared to control. The intra-assay variability was determined to be less than 10%. Inhibition of target activity by the compound is shown by a negative value, while activation of target activity is shown by positive value, with values >10% considered to be highly significant.

Experiment [2] concerns the target PKCδ (Homo sapiens, UniProt Q05655). The experiment is described as follows: In vitro 32P phosphorylation kinase assay with histone substrate. The class given is biochemical. Particulars: for % activity change 3 μM: 3 μM compound, negative = inhibition. The protocol: Since PK analogs are directed against PKCδ, it was first determined whether the analogs would inhibit PKCδ enzyme activity in kinase assays. The ability of lead PK analogs to inhibit purified human recombinant PKCδ enzyme activity by 32P phosphorylation kinase assay with histone as the substrate was measured. The in vitro kinase assays were performed with human recombinant PKCδ in the presence or absence of 0.3-10 μM lead PK analogs in the presence histone substrate, [^32P]-ATP and phospholipids. The extent of histone phosphorylation was determined after separation in SDS-PAGE and by phosphoimaging. IC50 was obtained using sigmoidal dose-response curve and non-linear regressional analysis using Graphpad Prism software.
In vitro kinase assays were performed with human recombinant PKCδ in the presence or absence of 0.3-10 μM lead PK analogs in the presence histone substrate, [^32P]-ATP and phospholipids. The extent of histone phosphorylation was determined after separation in SDS-PAGE and by phosphoimaging.

Experiment [3] relates to C57 black mice. Briefly: MPTP mouse model, tyrosine hydroxylase (TH) immunostaining of substantia nigra. It counts as in vivo. Particulars: MPTP 4 x 18 mg/kg i.p.; 10 mg/kg oral gavage, 7 days. The protocol:
PK analogs attenuate dopaminergic neuronal cell loss induced by MPTP toxicity in mouse substantia nigra. Lead PK analogs were examined to determine whether they could protect against MPTP-induced dopaminergic neuronal loss in C57 black mice. Mice received 4 doses of MPTP at 18 mg/kg i.p. at 2 hr interval. Oral administration of PK analogs (10 mg/kg body wt, oral gavage) was continued for 7 days. Mice were sacrificed after 7 days of MPTP injections. (n=5).
Abbreviataions: M: MPTP; SNpc: substantia nigra pars compacta; SNl: substantia nigra lateralis; SNr: substantia nigra reticularis; VTA: Ventral tegmental area.

Where [4] appears, read: 0.3-10 μM, histone substrate, [32P]-ATP, phospholipids, read-out: IC50.

Broadly, the IC50 is the concentration at which inhibition is half-maximal.

Sequence of PKCδ (Q05655 whole entry): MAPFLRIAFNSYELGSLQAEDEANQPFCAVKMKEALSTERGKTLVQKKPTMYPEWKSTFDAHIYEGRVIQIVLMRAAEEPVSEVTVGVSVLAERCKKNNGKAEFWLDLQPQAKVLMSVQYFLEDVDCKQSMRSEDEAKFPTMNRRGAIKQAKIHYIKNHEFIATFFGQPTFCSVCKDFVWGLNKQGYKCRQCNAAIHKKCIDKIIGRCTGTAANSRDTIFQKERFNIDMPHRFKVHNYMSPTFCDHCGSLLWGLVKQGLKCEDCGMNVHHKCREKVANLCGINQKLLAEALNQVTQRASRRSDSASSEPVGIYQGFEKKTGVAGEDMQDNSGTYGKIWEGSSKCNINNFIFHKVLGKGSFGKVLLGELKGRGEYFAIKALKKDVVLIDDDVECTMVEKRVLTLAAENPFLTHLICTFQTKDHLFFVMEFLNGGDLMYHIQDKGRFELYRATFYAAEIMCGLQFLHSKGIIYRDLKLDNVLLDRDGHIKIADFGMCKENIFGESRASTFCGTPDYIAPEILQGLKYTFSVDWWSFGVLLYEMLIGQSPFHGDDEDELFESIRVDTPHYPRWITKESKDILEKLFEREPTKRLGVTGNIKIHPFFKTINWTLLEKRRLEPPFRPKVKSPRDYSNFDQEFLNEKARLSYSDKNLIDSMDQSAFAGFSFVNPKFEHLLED

`CC1(C)C=Cc2c(O)cc(O)c(C(=O)/C=C/c3ccccc3)c2O1` [PK302]: in experiment [1], the “% activity change” value came to 0%. For the same compound, the “% activity change 3 μM” value in experiment [2] is −73%. Further, in experiment [2] (setting [4]), the IC50 was found to be 1.99 µM. In addition, the “protection against MPTP-induced nigral dopaminergic degeneration (TH immunostaining)” value (“protection” below) in experiment [3] is given as “significant protection”.
As to `CC(=O)c1c(O)c(C)c(O)c(Cc2c(O)c3c(c(C(=O)/C=C/c4ccccc4)c2O)OC(C)(C)C=C3)c1O` [Rottlerin, (E)-1-[6-[(3-acetyl-2,4,6-trihydroxy-5-methylphenyl)methyl]-5,7-dihydroxy-2,2-dimethylchromen-8-yl]-3-phenylprop-2-en-1-one], in experiment [1], the “% activity change” value was found to be 2%. In addition, in experiment [2], the IC50 came to 13.6 µM and the “% activity change 3 μM” value is given as −40%.
On to `Oc1cc(O)c(Cc2c(O)cc(O)cc2O)c(O)c1` [PK103], for which the “% activity change” value in experiment [1] came out at 0%. Moreover, the “% activity change 3 μM” value in experiment [2] is listed as −65%. The IC50 in experiment [2] (setting [4]) was determined as 5.98 µM. In experiment [3], the “protection” value is listed as “significant protection”.
Regarding `CC(=O)c1c(O)c(C)c(O)c(Cc2c(O)c3c(c4c2OC(c2ccccc2)CC4=O)OC(C)(C)C=C3)c1O` (stereo not drawn) [PK202], in experiment [1], the “% activity change” value came out at 4%. Also, in experiment [2], the “% activity change 3 μM” value was −67%. Also, in experiment [2] (setting [4]), the IC50 amounted to 0.97 µM. Also, the “protection” value in experiment [3] is listed as “significant protection”.
